Experimental data from patent publication US20260226493A1, “HERBICIDE RESISTANT PLANTS” (SYNGENTA CROP PROTECTION AG, priority 2023, published 2026).

Columns and labels:
Experiment in all cases: BIO3-BIO1 mutant enzyme activity in the presence of herbicide, percentage inhibition (fluorometric DAPA assay)
Assay type in all cases: biochemical
Settings in all cases: read-out: percentage inhibition
[1] = biological target: T1, Arabidopsis thaliana BIO3-BIO1 (BioDA) mutants (Arabidopsis thaliana, UniProt B0F481, A609C)
T1 construct: with the predicted N-terminal mitochondrial transit peptide removed; 6xHis-tag (N); thrombin cleavage site (N); made in house; host or cells: E. coli BL21 (DE3) bioA
Method in brief: (§1)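 His-tagged Arabidopsis BIO3-BIO1 mutants, expressed in E. coli and purified by IMAC and SEC, were preincubated at 50 nM with herbicide for 10 min at 20 °C in EPPS pH 8.6 with pyridoxal phosphate. Reaction with 100 μM spermidine and 20 μM KAPA ran 75 min at 20 °C; DAPA was derivatised with o-phthalaldehyde and read at ex 410/em 470 nm. […].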

[2] = biological target: T2, Arabidopsis thaliana BIO3-BIO1 (BioDA) mutants (Arabidopsis thaliana, UniProt B0F481, C388T)
T2 construct: with the predicted N-terminal mitochondrial transit peptide removed; 6xHis-tag (N); thrombin cleavage site (N); made in house; host or cells: E. coli BL21 (DE3) bioA
Method in brief: as §1

[3] = biological target: T3, Arabidopsis thaliana BIO3-BIO1 (BioDA) mutants (Arabidopsis thaliana, UniProt B0F481, F348T)
T3 construct: with the predicted N-terminal mitochondrial transit peptide removed; 6xHis-tag (N); thrombin cleavage site (N); made in house; host or cells: E. coli BL21 (DE3) bioA
Method in brief: as §1

[4] = biological target: T4, Arabidopsis thaliana BIO3-BIO1 (BioDA) mutants (Arabidopsis thaliana, UniProt B0F481, G513A)
T4 construct: with the predicted N-terminal mitochondrial transit peptide removed; 6xHis-tag (N); thrombin cleavage site (N); made in house; host or cells: E. coli BL21 (DE3) bioA
Method in brief: as §1

[5] = biological target: T5, Arabidopsis thaliana BIO3-BIO1 (BioDA) mutants (Arabidopsis thaliana, UniProt B0F481, P421E)
T5 construct: with the predicted N-terminal mitochondrial transit peptide removed; 6xHis-tag (N); thrombin cleavage site (N); made in house; host or cells: E. coli BL21 (DE3) bioA
Method in brief: as §1

[6] = biological target: T6, Arabidopsis thaliana BIO3-BIO1 (BioDA) mutants (Arabidopsis thaliana, UniProt B0F481, P510L)
T6 construct: with the predicted N-terminal mitochondrial transit peptide removed; 6xHis-tag (N); thrombin cleavage site (N); made in house; host or cells: E. coli BL21 (DE3) bioA
Method in brief: as §1

[7] = biological target: T7, Arabidopsis thaliana BIO3-BIO1 (BioDA) mutants (Arabidopsis thaliana, UniProt B0F481, Q350S)
T7 construct: with the predicted N-terminal mitochondrial transit peptide removed; 6xHis-tag (N); thrombin cleavage site (N); made in house; host or cells: E. coli BL21 (DE3) bioA
Method in brief: as §1

[8] = biological target: T8, Arabidopsis thaliana BIO3-BIO1 (BioDA) mutants (Arabidopsis thaliana, UniProt B0F481, Q517H)
T8 construct: with the predicted N-terminal mitochondrial transit peptide removed; 6xHis-tag (N); thrombin cleavage site (N); made in house; host or cells: E. coli BL21 (DE3) bioA
Method in brief: as §1

[9] = biological target: T9, Arabidopsis thaliana BIO3-BIO1 (BioDA) mutants (Arabidopsis thaliana, UniProt B0F481, S509V)
T9 construct: with the predicted N-terminal mitochondrial transit peptide removed; 6xHis-tag (N); thrombin cleavage site (N); made in house; host or cells: E. coli BL21 (DE3) bioA
Method in brief: as §1

[10] = biological target: T10, Arabidopsis thaliana BIO3-BIO1 (BioDA) mutants (Arabidopsis thaliana, UniProt B0F481, T512C)
T10 construct: with the predicted N-terminal mitochondrial transit peptide removed; 6xHis-tag (N); thrombin cleavage site (N); made in house; host or cells: E. coli BL21 (DE3) bioA
Method in brief: as §1

[11] = biological target: T11, Arabidopsis thaliana BIO3-BIO1 (BioDA) mutants (Arabidopsis thaliana, UniProt B0F481, W391M)
T11 construct: with the predicted N-terminal mitochondrial transit peptide removed; 6xHis-tag (N); thrombin cleavage site (N); made in house; host or cells: E. coli BL21 (DE3) bioA
Method in brief: as §1

[12] = biological target: T12, Arabidopsis thaliana BIO3-BIO1 (BioDA) mutants (Arabidopsis thaliana, UniProt B0F481, Y511I)
T12 construct: with the predicted N-terminal mitochondrial transit peptide removed; 6xHis-tag (N); thrombin cleavage site (N); made in house; host or cells: E. coli BL21 (DE3) bioA
Method in brief: as §1

T3 sequence (B0F481 23-833 F348T): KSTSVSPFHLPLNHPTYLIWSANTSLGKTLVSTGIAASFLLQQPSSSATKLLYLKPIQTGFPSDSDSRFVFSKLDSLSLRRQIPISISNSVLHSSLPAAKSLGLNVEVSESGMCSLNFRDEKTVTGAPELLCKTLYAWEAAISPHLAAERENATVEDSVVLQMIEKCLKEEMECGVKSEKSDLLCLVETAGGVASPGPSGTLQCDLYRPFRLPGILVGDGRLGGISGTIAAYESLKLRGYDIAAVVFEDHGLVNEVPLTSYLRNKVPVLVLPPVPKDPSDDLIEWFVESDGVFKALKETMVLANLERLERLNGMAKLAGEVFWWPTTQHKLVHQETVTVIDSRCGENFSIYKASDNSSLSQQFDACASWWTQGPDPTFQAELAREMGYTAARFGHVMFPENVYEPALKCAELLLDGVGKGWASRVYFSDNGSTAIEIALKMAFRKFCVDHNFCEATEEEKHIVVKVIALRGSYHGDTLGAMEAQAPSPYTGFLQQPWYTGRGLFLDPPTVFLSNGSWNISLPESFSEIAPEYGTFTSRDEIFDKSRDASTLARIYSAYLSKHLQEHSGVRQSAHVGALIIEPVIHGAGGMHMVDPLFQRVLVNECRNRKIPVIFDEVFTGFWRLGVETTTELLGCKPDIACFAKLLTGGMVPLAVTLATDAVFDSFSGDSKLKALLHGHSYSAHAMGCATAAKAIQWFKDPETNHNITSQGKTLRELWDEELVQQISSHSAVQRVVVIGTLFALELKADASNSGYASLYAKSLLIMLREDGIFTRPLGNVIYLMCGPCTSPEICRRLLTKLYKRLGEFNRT
T9 sequence (B0F481 23-833 S509V): as the sequence (B0F481 23-833 F348T) above, with T326F, S487V counted along it
T10 sequence (B0F481 23-833 T512C): as the sequence (B0F481 23-833 F348T) above, with T326F, T490C counted along it
T4 sequence (B0F481 23-833 G513A): as the sequence (B0F481 23-833 F348T) above, with T326F, G491A counted along it
T2 sequence (B0F481 23-833 C388T): as the sequence (B0F481 23-833 F348T) above, with T326F, C366T counted along it
T5 sequence (B0F481 23-833 P421E): as the sequence (B0F481 23-833 F348T) above, with T326F, P399E counted along it
T11 sequence (B0F481 23-833 W391M): as the sequence (B0F481 23-833 F348T) above, with T326F, W369M counted along it
T7 sequence (B0F481 23-833 Q350S): as the sequence (B0F481 23-833 F348T) above, with T326F, Q328S counted along it
T12 sequence (B0F481 23-833 Y511I): as the sequence (B0F481 23-833 F348T) above, with T326F, Y489I counted along it
T1 sequence (B0F481 23-833 A609C): as the sequence (B0F481 23-833 F348T) above, with T326F, A587C counted along it
T6 sequence (B0F481 23-833 P510L): as the sequence (B0F481 23-833 F348T) above, with T326F, P488L counted along it
T8 sequence (B0F481 23-833 Q517H): as the sequence (B0F481 23-833 F348T) above, with T326F, Q495H counted along it

CCn1c(C)c(-c2ccc(F)cc2F)c(=O)c(C(=O)O)c1-c1ccc(Cl)c(Cl)c1 [Compound C, 2-(3,4-dichlorophenyl)-5-(2,4-difluorophenyl)-1-ethyl-6-methyl-4-oxo-pyridine-3-carboxylic acid]
inhibition at 0.2 µM [1]: 29%
inhibition at 1 µM [1]: 73%
inhibition at 5 µM [1]: 94%
inhibition at 0.2 µM [2]: 49%
inhibition at 1 µM [2]: 78%
inhibition at 5 µM [2]: 95%
inhibition at 0.2 µM [3]: 0%
inhibition at 1 µM [3]: 4%
inhibition at 5 µM [3]: 0%
inhibition at 0.2 µM [4]: 10%
inhibition at 1 µM [4]: 63%
inhibition at 5 µM [4]: 88%
inhibition at 0.2 µM [5]: 37%
inhibition at 1 µM [5]: 31%
inhibition at 5 µM [5]: 0%
inhibition at 0.2 µM [6]: 67%
inhibition at 1 µM [6]: 84%
inhibition at 5 µM [6]: 96%
inhibition at 0.2 µM [7]: 2%
inhibition at 1 µM [7]: 35%
inhibition at 5 µM [7]: 66%
inhibition at 0.2 µM [8]: 11%
inhibition at 1 µM [8]: 44%
inhibition at 5 µM [8]: 77%
inhibition at 0.2 µM [9]: 17%
inhibition at 1 µM [9]: 30%
inhibition at 5 µM [9]: 94%
inhibition at 0.2 µM [10]: 22%
inhibition at 1 µM [10]: 83%
inhibition at 5 µM [10]: 97%
inhibition at 0.2 µM [11]: 39%
inhibition at 1 µM [11]: 24%
inhibition at 5 µM [11]: 63%
inhibition at 0.2 µM [12]: 36%
inhibition at 1 µM [12]: 93%
inhibition at 5 µM [12]: 100%

CCn1c(Cn2ccc(C(F)(F)F)n2)cc(=O)c(C(=O)O)c1-c1ccc(Cl)c(Cl)c1 [Compound L, 2-(3,4-dichlorophenyl)-1-ethyl-4-oxo-6-[[3-(trifluoromethyl)pyrazol-1-yl]methyl]pyridine-3-carboxylic acid]
inhibition at 0.01 µM [1]: 4%
inhibition at 0.075 µM [1]: 22%
inhibition at 0.5 µM [1]: 30%
inhibition at 0.01 µM [2]: 19%
inhibition at 0.075 µM [2]: 58%
inhibition at 0.5 µM [2]: 92%
inhibition at 0.01 µM [3]: 1%
inhibition at 0.075 µM [3]: 3%
inhibition at 0.5 µM [3]: 7%
inhibition at 0.01 µM [4]: 0%
inhibition at 0.075 µM [4]: 57%
inhibition at 0.5 µM [4]: 90%
inhibition at 0.01 µM [5]: 0%
inhibition at 0.075 µM [5]: 0%
inhibition at 0.5 µM [5]: 41%
inhibition at 0.01 µM [6]: 35%
inhibition at 0.075 µM [6]: 88%
inhibition at 0.5 µM [6]: 97%
inhibition at 0.01 µM [7]: 11%
inhibition at 0.075 µM [7]: 38%
inhibition at 0.5 µM [7]: 59%

CCOC(=O)c1nn(-c2ccc3c(c2)OC(F)(F)C(F)(F)O3)c2cccc(C(C)=O)c2c1=O [Compound A, ethyl 5-acetyl-4-oxo-1-(2,2,3,3-tetrafluoro-1,4-benzodioxin-6-yl)cinnoline-3-carboxylate]
inhibition at 1 µM [1]: 18%
inhibition at 1 µM [2]: 31%
inhibition at 1 µM [3]: 0%
inhibition at 1 µM [4]: 64%
inhibition at 1 µM [5]: 0%
inhibition at 1 µM [6]: 82%
inhibition at 1 µM [7]: 42%
inhibition at 1 µM [8]: 0%
inhibition at 1 µM [9]: 6%
inhibition at 1 µM [10]: 50%
inhibition at 1 µM [11]: 85%
inhibition at 1 µM [12]: 17%

CCn1c(-c2ccc(Cl)c(Cl)c2)c(C(=O)O)c(=O)c2cc(F)ccc21 [Compound M, 2-(3,4-dichlorophenyl)-1-ethyl-6-fluoro-4-oxo-quinoline-3-carboxylic acid]
inhibition at 0.2 µM [1]: 10%
inhibition at 1 µM [1]: 47%
inhibition at 5 µM [1]: 78%
inhibition at 0.2 µM [2]: 48%
inhibition at 1 µM [2]: 78%
inhibition at 5 µM [2]: 95%
inhibition at 0.2 µM [3]: 15%
inhibition at 1 µM [3]: 2%
inhibition at 5 µM [3]: 7%
inhibition at 0.2 µM [4]: 25%
inhibition at 1 µM [4]: 58%
inhibition at 5 µM [4]: 90%
inhibition at 0.2 µM [5]: 0%
inhibition at 1 µM [5]: 47%
inhibition at 5 µM [5]: 62%
inhibition at 0.2 µM [6]: 54%
inhibition at 1 µM [6]: 77%
inhibition at 5 µM [6]: 94%
inhibition at 0.2 µM [7]: 4%
inhibition at 1 µM [7]: 22%
inhibition at 5 µM [7]: 44%
inhibition at 0.2 µM [8]: 6%
inhibition at 1 µM [8]: 37%
inhibition at 5 µM [8]: 71%
inhibition at 0.2 µM [9]: 22%
inhibition at 1 µM [9]: 26%
inhibition at 5 µM [9]: 88%
inhibition at 0.2 µM [10]: 27%
inhibition at 1 µM [10]: 79%
inhibition at 5 µM [10]: 95%
inhibition at 0.2 µM [11]: 27%
inhibition at 1 µM [11]: 37%
inhibition at 5 µM [11]: 84%
inhibition at 0.2 µM [12]: 21%
inhibition at 1 µM [12]: 81%
inhibition at 5 µM [12]: 96%
